ChEMBL document CHEMBL1123172, “Inhibitors of dihydropteroate synthase: substituent effects in the side-chain aromatic ring of 6-[[3-(aryloxy)propyl]amino]-5-nitrosoisocytosines and synthesis and inhibitory potency of bridged 5-nitrosoisocytosine-p-aminobenzoic acid analogues” (J Med Chem, 1986)

Target: T1, Dihydropteroate synthase (Escherichia coli K-12, UniProt P0AC13)
T1 sequence (P0AC13 whole entry): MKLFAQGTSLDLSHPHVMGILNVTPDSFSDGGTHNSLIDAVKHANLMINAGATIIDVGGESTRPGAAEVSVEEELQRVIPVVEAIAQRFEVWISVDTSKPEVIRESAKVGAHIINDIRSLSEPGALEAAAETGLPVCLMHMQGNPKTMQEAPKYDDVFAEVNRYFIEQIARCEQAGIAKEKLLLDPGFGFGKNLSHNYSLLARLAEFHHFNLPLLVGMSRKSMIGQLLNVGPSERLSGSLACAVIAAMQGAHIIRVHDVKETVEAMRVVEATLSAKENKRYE
Test: In vitro concentration required to inhibit partially purified dihydropteroate synthase of Escherichia coli by 50%
Type: functional
Settings: read-out: I50

IC50 | Compound
7.3 µM | COc1ccc(OCCCNc2nc(N)nc(O)c2N=O)cc1
2.1 µM | CCCCOc1ccc(OCCCNc2nc(N)nc(O)c2N=O)cc1
2.9 µM | CCOC(=O)c1ccc(OCCCNc2nc(N)nc(O)c2N=O)cc1
2.2 µM | Nc1nc(O)c(N=O)c(NCCCOc2ccc(O)cc2)n1
8.9 µM | Nc1nc(O)c(N=O)c(NCCCNc2ccc(C(=O)O)cc2)n1
6.6 µM | Nc1nc(NCCCOc2ccc(C(=O)O)cc2)c(N=O)c(=O)[nH]1
2 µM | COc1cc(OCCCNc2nc(N)nc(O)c2N=O)cc(OC)c1OC
2.5 µM | Nc1nc(O)c(N=O)c(NCCCCNc2ccc(C(=O)O)cc2)n1

More lines, now with the values behind:

Compound | IC50
Cc1ccc(S(=O)(=O)Nc2ccc(OCCCNc3nc(N)nc(O)c3N=O)cc2)cc1 | 0.6 µM
CS(=O)(=O)c1ccc(OCCCNc2nc(N)nc(O)c2N=O)cc1 | 2.5 µM
Nc1nc(O)c(N=O)c(NCCCOc2ccc(C(F)(F)F)cc2)n1 | 1.4 µM
Nc1nc(O)c(N=O)c(NCCCOc2ccc([N+](=O)[O-])cc2)n1 | 1 µM
COc1cc(OC)cc(OCCCNc2nc(N)nc(O)c2N=O)c1 | 0.7 µM
CCOC(=O)c1ccc(NCCCCNc2nc(N)nc(O)c2N=O)cc1 | 3 µM
Nc1nc(O)c(N=O)c(NCCCOc2ccc(OCc3ccccc3)cc2)n1 | 3 µM
Nc1nc(O)c(N=O)c(NCCCOc2ccccc2OCc2ccccc2)n1 | 18 µM
Nc1nc(O)c(N=O)c(NCCCOc2cc(Cl)cc(Cl)c2)n1 | 1.4 µM
Nc1nc(O)c(N=O)c(NCCCOc2ccc(Cl)cc2)n1 | 1 µM
